Experimental data as given in paper PMC11533140 (Frontiers in Pharmacology, 2024).
Like-named read-outs stand apart in the source and are kept apart here. Each block holds one compound with its values, some of them ahead of it.

What was measured:
PI3Kα = PI3Kα (Homo sapiens, UniProt P42336); assay: in vitro PI3Kα kinase inhibition assay; type: biochemical
Procedure: (§1) The in vitro inhibition assays of all final compounds against PI3K were performed by Shanghai ChemPartner Co., Ltd. (China). The antiproliferative activities of the compounds against A2780, U87MG, MCF7, and DU145 cell lines were tested by the standard MTT method. CHO cells stably expressing the transcript of hERG were investigated by the automated whole-cell patch clamp technique, using the QPatch system (Sophion). The compound was tested with Salmonella typhimurium strains TA98 and TA100 with the plate incorporation method at seven doses. Apoptosis was evaluated using the One-Step TUNEL Apoptosis Assay Kit (FITC) (cat. no. MA0223; Meilunbio, Dalian, China), according to the manufacturer’s protocol. Male and female SD rats (SLRC Laboratory Animal Inc., Shanghai, China) were used, and the detailed pharmacokinetic procedures are described in Supplementary Material.

hERG = molecular target: T1, hERG (Homo sapiens, UniProt Q12809); assay: hERG automated whole-cell patch clamp (QPatch), CHO cells; type: cell-based; conditions: human, CHO cells stably expressing hERG; CHO cells expressing hERG, patch clamp; read-out: IC50 on hERG potassium currents
T1 construct: expressed in transfected cells
T1 sequence (Q12809 whole entry): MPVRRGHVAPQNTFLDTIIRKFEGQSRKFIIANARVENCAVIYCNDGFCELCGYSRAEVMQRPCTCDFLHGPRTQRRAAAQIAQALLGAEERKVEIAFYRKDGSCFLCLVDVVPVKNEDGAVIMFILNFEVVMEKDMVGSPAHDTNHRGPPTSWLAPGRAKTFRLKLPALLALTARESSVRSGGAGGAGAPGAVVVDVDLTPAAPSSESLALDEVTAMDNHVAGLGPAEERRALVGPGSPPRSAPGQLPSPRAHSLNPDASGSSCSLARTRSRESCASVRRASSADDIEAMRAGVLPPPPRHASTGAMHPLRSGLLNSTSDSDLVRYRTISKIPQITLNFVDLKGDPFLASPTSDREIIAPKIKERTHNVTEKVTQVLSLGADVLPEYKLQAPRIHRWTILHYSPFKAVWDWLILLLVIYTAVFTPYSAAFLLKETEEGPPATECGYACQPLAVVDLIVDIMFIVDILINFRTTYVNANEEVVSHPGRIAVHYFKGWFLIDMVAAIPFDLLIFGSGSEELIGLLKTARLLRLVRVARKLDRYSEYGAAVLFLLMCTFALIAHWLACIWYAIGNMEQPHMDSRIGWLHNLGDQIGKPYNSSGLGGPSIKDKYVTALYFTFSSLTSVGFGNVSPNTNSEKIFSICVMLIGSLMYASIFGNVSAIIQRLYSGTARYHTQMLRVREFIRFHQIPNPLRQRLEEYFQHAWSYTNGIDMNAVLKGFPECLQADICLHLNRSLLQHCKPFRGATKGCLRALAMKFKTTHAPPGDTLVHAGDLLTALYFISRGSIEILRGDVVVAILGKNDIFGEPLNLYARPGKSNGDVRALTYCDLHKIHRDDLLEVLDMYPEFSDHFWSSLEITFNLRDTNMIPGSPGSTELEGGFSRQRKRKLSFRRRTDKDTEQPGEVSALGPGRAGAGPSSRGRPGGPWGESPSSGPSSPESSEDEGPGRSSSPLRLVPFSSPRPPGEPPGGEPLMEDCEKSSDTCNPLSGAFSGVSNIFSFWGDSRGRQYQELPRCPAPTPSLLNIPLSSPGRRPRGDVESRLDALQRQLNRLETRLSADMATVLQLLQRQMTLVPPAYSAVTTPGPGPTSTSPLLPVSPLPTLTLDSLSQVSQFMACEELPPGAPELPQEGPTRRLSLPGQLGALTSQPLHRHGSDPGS
Procedure: as §1
(§2) To evaluate cardiotoxicity, it is necessary to test inhibitory activity on hERG potassium currents.

U87MG cells = assay: MTT antiproliferative assay, U87MG; type: cell-based; conditions: for IC50: Homo sapiens, U-87 MG
Procedure: as §1

MCF7 cells = assay: MTT antiproliferative assay, MCF7; type: cell-based; conditions: Homo sapiens
Procedure: as §1

A2780 cells [1] = assay: MTT antiproliferative assay, A2780; type: cell-based; conditions: Homo sapiens
Procedure: as §1

DU145 cells = assay: MTT antiproliferative assay, DU145; type: cell-based; conditions: for IC50: Homo sapiens, DU-145
Procedure: as §1

PI3Kδ = PI3Kδ (Homo sapiens, UniProt O00329); assay: in vitro PI3Kδ inhibition assay (isoform selectivity); type: biochemical; conditions: Table 4
Procedure: as §1

PI3Kβ = PI3Kβ (Homo sapiens, UniProt P42338); assay: in vitro PI3Kβ inhibition assay (isoform selectivity); type: biochemical; conditions: Table 4
Sequence of PI3Kβ (P42338 whole entry, canonical isoform): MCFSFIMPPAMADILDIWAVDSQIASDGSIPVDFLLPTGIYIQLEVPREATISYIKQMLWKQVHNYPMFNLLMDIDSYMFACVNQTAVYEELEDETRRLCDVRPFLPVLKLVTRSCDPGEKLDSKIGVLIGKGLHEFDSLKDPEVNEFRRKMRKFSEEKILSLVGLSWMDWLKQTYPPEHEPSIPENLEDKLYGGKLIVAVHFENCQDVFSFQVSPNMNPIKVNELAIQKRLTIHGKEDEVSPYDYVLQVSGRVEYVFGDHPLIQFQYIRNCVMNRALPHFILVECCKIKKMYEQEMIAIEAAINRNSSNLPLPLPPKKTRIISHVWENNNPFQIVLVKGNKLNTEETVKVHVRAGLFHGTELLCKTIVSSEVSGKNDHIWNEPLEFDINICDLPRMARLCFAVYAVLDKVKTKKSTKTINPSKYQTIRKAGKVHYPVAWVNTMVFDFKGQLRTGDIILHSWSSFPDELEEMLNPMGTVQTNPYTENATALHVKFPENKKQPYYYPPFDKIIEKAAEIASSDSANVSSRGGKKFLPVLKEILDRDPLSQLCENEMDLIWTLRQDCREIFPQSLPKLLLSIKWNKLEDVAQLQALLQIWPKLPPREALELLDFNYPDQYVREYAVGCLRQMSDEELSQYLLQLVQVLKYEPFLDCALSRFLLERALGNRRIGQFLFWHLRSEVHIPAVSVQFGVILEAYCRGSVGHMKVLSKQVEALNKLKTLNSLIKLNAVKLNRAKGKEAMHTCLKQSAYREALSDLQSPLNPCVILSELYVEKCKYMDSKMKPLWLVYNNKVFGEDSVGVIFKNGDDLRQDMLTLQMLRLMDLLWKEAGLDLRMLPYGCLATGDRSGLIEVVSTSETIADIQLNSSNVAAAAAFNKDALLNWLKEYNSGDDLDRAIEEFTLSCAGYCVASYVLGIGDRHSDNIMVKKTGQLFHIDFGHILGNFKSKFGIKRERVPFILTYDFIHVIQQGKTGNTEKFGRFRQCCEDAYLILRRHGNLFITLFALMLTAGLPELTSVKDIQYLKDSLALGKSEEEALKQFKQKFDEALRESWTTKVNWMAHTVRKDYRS
Sequence of PI3Kβ (P27986 whole entry partner, canonical isoform): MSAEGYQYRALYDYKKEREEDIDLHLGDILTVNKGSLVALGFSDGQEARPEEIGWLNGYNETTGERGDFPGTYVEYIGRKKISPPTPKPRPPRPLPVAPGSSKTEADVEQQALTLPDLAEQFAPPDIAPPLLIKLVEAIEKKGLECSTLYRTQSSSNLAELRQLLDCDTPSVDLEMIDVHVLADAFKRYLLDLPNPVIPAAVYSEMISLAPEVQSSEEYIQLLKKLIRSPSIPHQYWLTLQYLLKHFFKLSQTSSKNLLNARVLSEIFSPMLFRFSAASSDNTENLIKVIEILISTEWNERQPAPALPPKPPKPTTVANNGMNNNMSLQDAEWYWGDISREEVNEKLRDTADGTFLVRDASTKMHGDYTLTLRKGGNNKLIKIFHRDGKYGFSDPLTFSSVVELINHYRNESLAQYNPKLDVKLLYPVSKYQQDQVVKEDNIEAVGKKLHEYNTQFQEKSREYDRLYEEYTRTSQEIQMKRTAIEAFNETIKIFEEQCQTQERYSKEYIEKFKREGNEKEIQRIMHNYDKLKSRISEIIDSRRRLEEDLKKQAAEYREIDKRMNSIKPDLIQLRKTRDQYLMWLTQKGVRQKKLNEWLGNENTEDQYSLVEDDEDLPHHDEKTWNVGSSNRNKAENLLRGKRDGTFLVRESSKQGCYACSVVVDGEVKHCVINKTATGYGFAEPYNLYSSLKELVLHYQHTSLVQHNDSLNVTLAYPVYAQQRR
Procedure: as §1

mTOR = mTOR (Homo sapiens, UniProt P42345); assay: in vitro mTOR inhibition assay (selectivity); type: biochemical; conditions: Table 4
Procedure: as §1

PI3Kγ = PI3Kγ (Homo sapiens, UniProt P48736); assay: in vitro PI3Kγ inhibition assay (isoform selectivity); type: biochemical; conditions: Table 4
Procedure: as §1

[2] = liver microsome stability, rat; type: in vitro ADME; conditions: liver microsomes
Procedure: (§3) The metabolic stability of 17p was evaluated in liver microsome assays, which measure clearance and half-life in rats and humans.

MRC-5 cells = assay: inhibitory activity on normal cells, MRC-5; type: cell-based; conditions: Homo sapiens, MRC5
From the text: (§4) Several clinical PI3K candidates were severely intolerable to patients due to fatal hepatotoxicity and, thus, failed in clinical trials. Thus, evaluating the selectivity of compounds toward normal cells might reduce the risk of clinical failure of new compounds.

[3] = tested on: Salmonella typhimurium TA98; assay: Ames test, plate incorporation, TA98; type: cell-based
Procedure: as §1
(§5) S. typhimurium TA98 and TA100 were selected to conduct the Ames experiment to investigate the genotoxicity risk of compound 17p.

[4] = pharmacokinetics in SD rats; type: in vivo; parameters: area under the curve: unit not given here; conditions: for AUC(0-t) / Cmax / half-life / Tmax / bioavailability: rat, plasma; for bioavailability: read-out: F (oral bioavailability)
Procedure: as §1
According to the good in vitro properties of compound 17p, we performed pharmacokinetic analyses in male and female SD rats at doses of 10 (po) and 2.5 mg/kg (iv), respectively (Table 9). The pharmacokinetic properties in male and female SD rats were […]. […] Thus, compound 17p had favorable pharmacokinetic properties.

HL-7702 cells = assay: inhibitory activity on normal cells, HL-7702; type: cell-based; conditions: Homo sapiens, L02
From the text: as §4

A2780 cells [5] = assay: TUNEL apoptosis assay in A2780; type: cell-based; conditions: 24 h treatment
Procedure: as §1
The ED50 value of 17p cytotoxicity was determined using a multiple logistic regression model.

hERG potassium currents = molecular target: T2, hERG potassium currents (Homo sapiens, UniProt Q12809); assay: hERG automated whole-cell patch clamp (QPatch), CHO cells; type: cell-based; conditions: in words
T2 construct: expressed in transfected cells
Procedure: as §1, §2

[6] = liver microsome stability, human; type: in vitro ADME; conditions: liver microsomes
Procedure: as §3

[7] = tested on: Salmonella typhimurium TA100; assay: Ames test, plate incorporation, TA100; type: cell-based
Procedure: as §1, §5

[8] = Figure 5 activity bins, read-out: IC50 range in SAR figure (PI3Kα)
[9] = mean of three independent experiments, read-out: IC50 against PI3Kα
[10] = read-out: T1/2 liver microsomes

Sequence of PI3Kα (P42336 whole entry): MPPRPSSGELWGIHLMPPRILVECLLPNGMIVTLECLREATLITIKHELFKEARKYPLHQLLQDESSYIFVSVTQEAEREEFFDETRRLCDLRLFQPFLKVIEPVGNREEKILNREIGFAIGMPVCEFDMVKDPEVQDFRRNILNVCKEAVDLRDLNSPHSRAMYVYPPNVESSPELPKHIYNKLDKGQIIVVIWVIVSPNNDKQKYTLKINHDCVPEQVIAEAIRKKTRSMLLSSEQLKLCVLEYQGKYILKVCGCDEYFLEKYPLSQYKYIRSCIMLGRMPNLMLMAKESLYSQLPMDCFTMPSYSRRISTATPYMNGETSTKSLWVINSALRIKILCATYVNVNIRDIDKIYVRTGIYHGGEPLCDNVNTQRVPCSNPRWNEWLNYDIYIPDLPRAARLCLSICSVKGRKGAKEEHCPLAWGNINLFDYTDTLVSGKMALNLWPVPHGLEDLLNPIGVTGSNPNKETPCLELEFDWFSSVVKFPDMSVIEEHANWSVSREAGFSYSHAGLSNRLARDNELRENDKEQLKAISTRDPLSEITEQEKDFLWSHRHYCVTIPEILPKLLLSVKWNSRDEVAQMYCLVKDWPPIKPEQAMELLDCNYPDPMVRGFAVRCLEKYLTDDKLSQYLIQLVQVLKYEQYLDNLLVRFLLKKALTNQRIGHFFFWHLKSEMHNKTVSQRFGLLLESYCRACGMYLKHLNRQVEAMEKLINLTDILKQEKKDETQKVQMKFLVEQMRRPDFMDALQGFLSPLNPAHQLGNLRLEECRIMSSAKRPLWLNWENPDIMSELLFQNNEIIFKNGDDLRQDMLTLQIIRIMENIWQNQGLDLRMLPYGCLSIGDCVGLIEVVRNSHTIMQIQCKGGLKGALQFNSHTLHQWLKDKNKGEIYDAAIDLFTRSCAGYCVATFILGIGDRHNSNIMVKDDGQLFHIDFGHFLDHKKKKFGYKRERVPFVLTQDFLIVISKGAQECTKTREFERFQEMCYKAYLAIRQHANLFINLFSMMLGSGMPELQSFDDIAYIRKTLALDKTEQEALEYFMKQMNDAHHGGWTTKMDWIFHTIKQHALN
Sequence of PI3Kα (P27986 whole entry partner): as the sequence (P27986 whole entry partner, canonical isoform) above

SMILES: N#Cc1c(-c2cn[nH]c2)nc(N2CCOCC2)nc1N1CCOCC1 [Compound 17a]
- IC50 (PI3Kα; [8]): 0.03 to 0.3 µM
- IC50 (PI3Kα; [9]): 0.162 ± 0.0131 µM

SMILES: CCOC(=O)C1CCN(c2cc(-c3cnc(N)cc3C(F)(F)F)nc(N3CCOCC3)n2)CC1 [Compound 12a]
- IC50 (PI3Kα; [9]): 2.29 µM

SMILES: COc1cc(N)c(Cl)cc1C(=O)NC1CCN(CCCOc2ccc(F)cc2)CC1OC (stereo not drawn) [Cisapride, reference compound]
- IC50 (hERG): 0.41 ± 0.06 µM

SMILES: c1nn(C2CCNCC2)cc1-c1nc(N2CCOCC2)nc(N2CCOCC2)n1 [Compound 12e]
- IC50 against PI3Kα (PI3Kα; mean of three independent experiments): no activity
- IC50 (PI3Kα; [9]): > 10 µM

SMILES: CCOC(=O)C1CCN(c2nc(-c3cnc(N)cc3C(F)(F)F)cc(N3CCOCC3)n2)CC1 [Compound 12b]
- IC50 (PI3Kα; [9]): 0.685 ± 0.0626 µM

SMILES: Cc1nn(C)cc1-c1nc(N2CCOCC2)nc(N2CCOCC2)c1C#N [Compound 17c]
- IC50 (PI3Kα; [9]): 1.36 µM

SMILES: N#Cc1c(-c2cnc(N)nc2C(F)(F)F)nc(N2CCOCC2)nc1N1CCOCC1 [Compound 17p]
- IC50 (PI3Kδ): 0.0154 ± 0.0019 µM
- IC50 (U87MG cells): 4.72 ± 0.37 µM
- IC50 (PI3Kβ): 0.125 ± 0.0101 µM
- IC50 (PI3Kα; [8]): 0.03 to 0.3 µM
- IC50 (PI3Kα; Table 4, read-out: IC50 PI3Kα (isoform selectivity study)): 0.0303 ± 0.0035 µM
- IC50 (PI3Kα; [9]): 0.0324 ± 0.0041 µM
- IC50 (mTOR): 1.42 ± 0.184 µM
- IC50 (PI3Kγ): 0.286 ± 0.0396 µM
- microsomal CLint ([2]; read-out: CL liver microsomes): 36 µL/min/mg
- half-life [2, 10]: 0.642 h
- IC50 (MRC-5 cells): 8.47 ± 0.77 µM
- Number of bacterial colony revertant mutations (mean ± SD) TA98 ([3]; 3 μg/dish): 38 ± 7
- Number of bacterial colony revertant mutations (mean ± SD) TA98 ([3]; 10 μg/dish): 41 ± 4
- Number of bacterial colony revertant mutations (mean ± SD) TA98 ([3]; 30 μg/dish): 37 ± 11
- Number of bacterial colony revertant mutations (mean ± SD) TA98 ([3]; 100 μg/dish): 43 ± 4
- Number of bacterial colony revertant mutations (mean ± SD) TA98 ([3]; 300 μg/dish): 29 ± 4
- Number of bacterial colony revertant mutations (mean ± SD) TA98 ([3]; 1,000 μg/dish): 44 ± 5
- Number of bacterial colony revertant mutations (mean ± SD) TA98 ([3]; 5,000 μg/dish): 40 ± 4
- mutagenic effect on TA98 ([3]; in words): no mutagenic effect
- Cl_F_pred ([4]; female SD rats, 2.5 mg/kg iv): 1.5 mL/min/kg
- Cl_F_pred (plasma clearance) ([4]; female SD rats, 10 mg/kg po): 3.3 mL/min/kg
- area under the curve ([4]; female SD rats, 10 mg/kg po): 50,618.9
- Cl_F_pred ([4]; male SD rats, 2.5 mg/kg iv): 16.3 mL/min/kg
- Cl_F_pred ([4]; male SD rats, 10 mg/kg po): 109 mL/min/kg
- AUC(0-t) ([4]; female SD rats, 2.5 mg/kg iv): 27400 ng·h/mL
- Cmax ([4]; female SD rats, 2.5 mg/kg iv): 4280 ng/mL
- half-life ([4]; female SD rats, 2.5 mg/kg iv): 2.79 h
- AUC(0-t) ([4]; female SD rats, 10 mg/kg po): 50600 ng·h/mL
- Cmax ([4]; female SD rats, 10 mg/kg po): 4860 ng/mL
- Tmax ([4]; female SD rats, 10 mg/kg po): 3.33 h
- half-life ([4]; female SD rats, 10 mg/kg po): 2.03 h
- bioavailability ([4]; female SD rats, 10 mg/kg po): 46.2%
- AUC(0-t) ([4]; male SD rats, 2.5 mg/kg iv): 2690 ng·h/mL
- Cmax ([4]; male SD rats, 2.5 mg/kg iv): 3120 ng/mL
- half-life ([4]; male SD rats, 2.5 mg/kg iv): 0.68 h
- AUC(0-t) ([4]; male SD rats, 10 mg/kg po): 1860 ng·h/mL
- Cmax ([4]; male SD rats, 10 mg/kg po): 538 ng/mL
- Tmax ([4]; male SD rats, 10 mg/kg po): 0.67 h
- half-life ([4]; male SD rats, 10 mg/kg po): 3.19 h
- bioavailability ([4]; male SD rats, 10 mg/kg po): 17.3%
- IC50 (MCF7 cells): 1.59 ± 0.08 µM
- IC50 (HL-7702 cells): 4.62 ± 0.52 µM
- cytotoxicity ED50 (TUNEL, logistic regression) (A2780 cells [5]): 5.345 µM
- IC50 (A2780 cells [1]): 0.85 ± 0.11 µM
- IC50 (hERG): 0.39 ± 0.03 µM
- inhibition of hERG potassium currents (hERG potassium currents): no obvious inhibition
- microsomal CLint ([6]; read-out: CL liver microsomes): 10.8 µL/min/mg
- half-life [6, 10]: 2.13 h
- Number of bacterial colony revertant mutations (mean ± SD) TA100 ([7]; 3 μg/dish): 88 ± 7
- Number of bacterial colony revertant mutations (mean ± SD) TA100 ([7]; 10 μg/dish): 92 ± 3
- Number of bacterial colony revertant mutations (mean ± SD) TA100 ([7]; 30 μg/dish): 86 ± 4
- Number of bacterial colony revertant mutations (mean ± SD) TA100 ([7]; 100 μg/dish): 91 ± 6
- Number of bacterial colony revertant mutations (mean ± SD) TA100 ([7]; 300 μg/dish): 90 ± 3
- Number of bacterial colony revertant mutations (mean ± SD) TA100 ([7]; 1,000 μg/dish): 91 ± 1
- Number of bacterial colony revertant mutations (mean ± SD) TA100 ([7]; 5,000 μg/dish): 87 ± 1
- mutagenic effect on TA100 ([7]; in words): no mutagenic effect
- IC50 (DU145 cells): 8.77 ± 1.16 µM

More lines, now with the values ahead:

- IC50 (PI3Kα; [8]): 0.4 to 0.8 µM
- IC50 (PI3Kα; [9]): 0.443 ± 0.0397 µM
SMILES: Cc1cc(N)ncc1-c1nc(N2CCOCC2)nc(N2CCOCC2)c1C#N [Compound 17l]

- IC50 (PI3Kα; Figure 5 activity bins, read-out: weak activity IC50 in SAR figure (PI3Kα)): > 1 µM
- IC50 (PI3Kα; [9]): 3.27 µM
SMILES: COc1cccc(-c2nc(N3CCOCC3)nc(N3CCOCC3)c2C#N)c1 [Compound 17g]

- IC50 (PI3Kα; [8]): 0.4 to 0.8 µM
- IC50 (PI3Kα; [9]): 0.477 ± 0.0524 µM
SMILES: N#Cc1c(-c2ccc(N)cc2)nc(N2CCOCC2)nc1N1CCOCC1 [Compound 17h]

- IC50 U87MG (U87MG cells): no inhibitory effects
- IC50 (U87MG cells): 66.1 ± 9.94 µM
- IC50 (PI3Kα; [8]): 0.03 to 0.3 µM
- IC50 (PI3Kα; [9]): 0.104 ± 0.0125 µM
- IC50 (MCF7 cells): 1.07 ± 0.09 µM
- IC50 (A2780 cells [1]): 2.72 ± 0.19 µM
- IC50 DU145 (DU145 cells): no inhibitory effects
- IC50 (DU145 cells): 12.4 ± 1.47 µM
SMILES: N#Cc1c(-c2cnc(N)cc2C(F)(F)F)nc(N2CCOCC2)nc1N1CCOCC1 [Compound 17m]

- IC50 range in SAR figure (PI3Kα) (PI3Kα; Figure 5 activity bins): no activity
- IC50 (PI3Kα; [9]): > 10 µM
SMILES: N#Cc1c(-c2cnn(C3CCNCC3)c2)nc(N2CCOCC2)nc1N1CCOCC1 [Compound 17d]
